Reference: US7507776B2, “Outdoor weatherable photopolymerizable coatings” (3M Innovative Properties Company, priority 2003, dated 2009)

Experiment: 48 hr solubility of benzotriazole UV absorbers in solubilizing monomers
Details: not given
Description: The solubility of the benzotriazole 2-(2-hydroxy-3-alpha-cumyl-5-t-octylphenyl)-5-trifluoromethylbenzotriazole (CGL-139, experimentally available from Ciba Specialty Chemicals) in various solubilizing monomers was determined. Mixtures were made up using 5% increments of the benzotriazole. The benzotriazole and solubilizing monomer to be tested were mixed with gentle heating to 70° C. in a water bath until dissolved, then allowed to stand for 48 hours at room temperature. After 48 hours, each mixture was inspected for benzotriazole precipitation. Solubility was determined to within 5% by recording the highest concentration tested for which there was no precipitation and the lowest concentration for which precipitation occurred. […] Where reported in the literature, the Tg of a polymer made entirely of the tested solubilizing monomer is also given.
Using the method of Example 1, the solubility of a variety of benzotriazoles in isobornyl acrylate was determined. The formula for each of the tested benzotriazoles is set out above. These benzotriazoles can also be represented using the general structure 2-(2-hydroxy-3-R2-5-R3-phenyl)-5-R1-benzotriazole. For CGL-139, R1=trifluoromethyl, R2=alpha-cumyl, and R3=t-octyl. For TINUVIN 928, R1=H, R2=alpha-cumyl, and R3=t-octyl. For Tinuvin 328, R1=H, R2=t-amyl, and R3=t-amyl. For TINUVIN 327, R1=chloro, R2=t-butyl, and R3=t-butyl. For TINUVIN 326, R1=chloro, R2=t-butyl, and R3=methyl. For both TINUVIN 234 and TINUVIN 900, R1=H, R2=alpha-cumyl, and R3=alpha-cumyl.

Row | SMILES | Benzotriazole 48 hr Solubility, wt. %
1 | CC(C)(C)CC(C)(C)c1cc(-n2nc3ccccc3n2)c(O)c(C(C)(C)c2ccccc2)c1 [TINUVIN 928, 2-(2-hydroxy-3-alpha-cumyl-5-tert-octylphenyl)-2H-benzotriazole] | 30-35% wt. %
2 | Cc1cc(-n2nc3ccc(Cl)cc3n2)c(O)c(C(C)(C)C)c1 [TINUVIN 326, 5-chloro-2-(2-hydroxy-3-tert-butyl-5-methylphenyl)-2H-benzotriazole] | 5-10% wt. %
3 | CC(C)(C)CC(C)(C)c1cc(-n2nc3ccc(C(F)(F)F)cc3n2)c(O)c(C(C)(C)c2ccccc2)c1 [CGL-139, 2-(2-hydroxy-3-alpha-cumyl-5-t-octylphenyl)-5-trifluoromethylbenzotriazole] | 25-30% wt. %

Same assay, conditions: in isobornyl acrylate; method of Example 1, 48 hours at room temperature

Row | SMILES | Benzotriazole 48 hr Solubility, wt. %
4 | CC(C)(C)c1cc(-n2nc3ccc(Cl)cc3n2)c(O)c(C(C)(C)C)c1 [TINUVIN 327, 5-chloro-2-(2-hydroxy-3,5-di-tert-butylphenyl)-2H-benzotriazole] | 5-10% wt. %
5 | CCC(C)(C)c1cc(-n2nc3ccccc3n2)c(O)c(C(C)(C)CC)c1 [TINUVIN 328, 2-(2-hydroxy-3,5-di-tert-amylphenyl)-2H-benzotriazole] | 20-25% wt. %
6 | CC(C)(c1ccccc1)c1cc(-n2nc3ccccc3n2)c(O)c(C(C)(C)c2ccccc2)c1 [TINUVIN 900, 2-(2-hydroxy-3,5-di-alpha-cumylphenyl)-2H-benzotriazole] | 0-5% wt. %
